From ChEMBL document CHEMBL4138123, “Design, synthesis and biological evaluation of novel pyrazolochalcones as potential modulators of PI3K/Akt/mTOR pathway and inducers of apoptosis in breast cancer cells” (Eur J Med Chem, 2017)

How the values were obtained:
NCI-H322M = experiment: Cytotoxicity against human NCI-H322M cells assessed as growth inhibition after 48 hrs by sulforhodamine B assay; type: functional; conditions: for CC50: read-out: LC50 (the source's name)
MDA-MB-435 = experiment: Cytotoxicity against human MDA-MB-435 cells assessed as growth inhibition after 48 hrs by sulforhodamine B assay; type: functional; conditions: MDA-MB-435, 48 h
TK-10 = experiment: Cytotoxicity against human TK10 cells assessed as cell growth at 100 uM after 48 hrs by sulforhodamine B assay relative to control; type: functional; conditions: TK-10, 48 h, read-out: Activity
K562 [1] = experiment: Cytotoxicity against human K562 cells assessed as cell growth at 100 uM after 48 hrs by sulforhodamine B assay relative to control; type: functional; conditions: K562, 48 h, read-out: Activity
SF-268 [2] = experiment: Cytotoxicity against human SF268 cells assessed as cell growth at 0.1 uM after 48 hrs by sulforhodamine B assay relative to control; type: functional; conditions: SF-268, 48 h, read-out: Activity
SF-268 [3] = experiment: Cytotoxicity against human SF268 cells assessed as cell growth at 10 uM after 48 hrs by sulforhodamine B assay relative to control; type: functional; conditions: SF-268, 48 h, read-out: Activity
NCI-H522 = experiment: Cytotoxicity against human NCI-H522 cells assessed as cell growth at 100 uM after 48 hrs by sulforhodamine B assay relative to control; type: functional; conditions: NCI-H522, 48 h, read-out: Activity
A549 = experiment: Cytotoxicity against human A549/ATCC cells assessed as cell growth at 10 uM after 48 hrs by sulforhodamine B assay relative to control; type: functional; conditions: A549, 48 h, read-out: Activity
HCC 2998 [4] = experiment: Cytotoxicity against human HCC2998 cells assessed as growth inhibition after 48 hrs by sulforhodamine B assay; type: functional; conditions: HCC 2998, 48 h
HCT-15 = experiment: Cytotoxicity against human HCT15 cells assessed as growth inhibition after 48 hrs by sulforhodamine B assay; type: functional; conditions: HCT-15, 48 h
MDA-MB-231 [5] = experiment: Cytotoxicity against human MDA-MB-231 cells assessed as growth inhibition after 48 hrs by MTT assay; type: functional, cell-based; conditions: MDA-MB-231, 48 h
SW-620 = experiment: Cytotoxicity against human SW620 cells assessed as growth inhibition after 48 hrs by sulforhodamine B assay; type: functional; conditions: SW-620, 48 h
NCI-H23 [6] = experiment: Cytotoxicity against human NCI-H23 cells assessed as cell growth at 1 uM after 48 hrs by sulforhodamine B assay relative to control; type: functional; conditions: NCI-H23, 48 h, read-out: Activity
HL-60(TB) = experiment: Cytotoxicity against human HL-60(TB) cells assessed as cell growth at 10 uM after 48 hrs by sulforhodamine B assay relative to control; type: functional; conditions: HL-60, 48 h, read-out: Activity
HCC 2998 [7] = experiment: Cytotoxicity against human HCC2998 cells assessed as cell growth at 0.1 uM after 48 hrs by sulforhodamine B assay relative to control; type: functional; conditions: HCC 2998, 48 h, read-out: Activity
OVCAR-5 = experiment: Cytotoxicity against human OVCAR5 cells assessed as cell growth at 100 uM after 48 hrs by sulforhodamine B assay relative to control; type: functional; conditions: OVCAR-5, 48 h, read-out: Activity
OVCAR-4 = experiment: Cytotoxicity against human OVCAR4 cells assessed as cell growth at 10 uM after 48 hrs by sulforhodamine B assay relative to control; type: functional; conditions: OVCAR-4, 48 h, read-out: Activity
RXF 393 = experiment: Cytotoxicity against human RXF393 cells assessed as cell growth at 10 uM after 48 hrs by sulforhodamine B assay relative to control; type: functional; conditions: RXF 393, 48 h, read-out: Activity
SNB-19 = experiment: Cytotoxicity against human SNB19 cells assessed as cell growth at 1 uM after 48 hrs by sulforhodamine B assay relative to control; type: functional; conditions: SNB-19, 48 h, read-out: Activity
786-0 = experiment: Cytotoxicity against human 786-0 cells assessed as cell growth at 100 uM after 48 hrs by sulforhodamine B assay relative to control; type: functional; conditions: 786-0, 48 h, read-out: Activity
MOLT-4 [8] = experiment: Cytotoxicity against human MOLT4 cells assessed as cell growth at 100 uM after 48 hrs by sulforhodamine B assay relative to control; type: functional; conditions: MOLT-4, 48 h, read-out: Activity
M14 [9] = experiment: Cytotoxicity against human M14 cells assessed as cell growth at 0.1 uM after 48 hrs by sulforhodamine B assay relative to control; type: functional; conditions: M14, 48 h, read-out: Activity
SR = experiment: Cytotoxicity against human SR cells assessed as cell growth at 1 uM after 48 hrs by sulforhodamine B assay relative to control; type: functional; conditions: read-out: Activity
SK-OV-3 = experiment: Cytotoxicity against human SKOV3 cells assessed as cell growth at 1 uM after 48 hrs by sulforhodamine B assay relative to control; type: functional; conditions: SK-OV-3, 48 h, read-out: Activity
COLO 205 = experiment: Cytotoxicity against human COLO205 cells assessed as cell growth at 0.1 uM after 48 hrs by sulforhodamine B assay relative to control; type: functional; conditions: COLO 205, 48 h, read-out: Activity
MOLT-4 [10] = experiment: Cytotoxicity against human MOLT4 cells assessed as cell growth at 10 uM after 48 hrs by sulforhodamine B assay relative to control; type: functional; conditions: MOLT-4, 48 h, read-out: Activity
M14 [11] = experiment: Cytotoxicity against human M14 cells assessed as cell growth at 100 uM after 48 hrs by sulforhodamine B assay relative to control; type: functional; conditions: M14, 48 h, read-out: Activity
SK-MEL-5 = experiment: Cytotoxicity against human SK-MEL-5 cells assessed as cell growth at 10 uM after 48 hrs by sulforhodamine B assay relative to control; type: functional; conditions: SK-MEL-5, 48 h, read-out: Activity
OVCAR-8 = experiment: Cytotoxicity against human OVCAR8 cells assessed as cell growth at 100 uM after 48 hrs by sulforhodamine B assay relative to control; type: functional; conditions: OVCAR-8, 48 h, read-out: Activity
T47D = experiment: Cytotoxicity against human T47D cells assessed as cell growth at 100 uM after 48 hrs by sulforhodamine B assay relative to control; type: functional; conditions: read-out: Activity
KM12 = experiment: Cytotoxicity against human KM12 cells assessed as cell growth at 100 uM after 48 hrs by sulforhodamine B assay relative to control; type: functional; conditions: KM12, 48 h, read-out: Activity
K562 [12] = experiment: Cytotoxicity against human K562 cells assessed as cell growth at 1 uM after 48 hrs by sulforhodamine B assay relative to control; type: functional; conditions: K562, 48 h, read-out: Activity
M14 [13] = experiment: Cytotoxicity against human M14 cells assessed as cell growth at 0.01 uM after 48 hrs by sulforhodamine B assay relative to control; type: functional; conditions: M14, 48 h, read-out: Activity
NCI-H23 [14] = experiment: Cytotoxicity against human NCI-H23 cells assessed as cell growth at 100 uM after 48 hrs by sulforhodamine B assay relative to control; type: functional; conditions: NCI-H23, 48 h, read-out: Activity
Malme-3M = experiment: Cytotoxicity against human MALME-3M cells assessed as cell growth at 1 uM after 48 hrs by sulforhodamine B assay relative to control; type: functional; conditions: read-out: Activity
MDA-MB-231 [15] = experiment: Cytotoxicity against human MDA-MB-231 cells assessed as cell growth at 0.1 uM after 48 hrs by sulforhodamine B assay relative to control; type: functional; conditions: MDA-MB-231, 48 h, read-out: Activity

COc1ccc(-c2cc(/C=C/C(=O)c3cc(OC)c(OC)c(OC)c3)[nH]n2)cc1OC
GI50 (NCI-H322M): 2.02 µM | TGI (NCI-H322M): 6.03 µM | CC50 (NCI-H322M): 25 µM | GI50 (MDA-MB-435): 1.78 µM | LC50 (MDA-MB-435): 9.2 µM | TGI (MDA-MB-435): 4.05 µM | growth at 100 µM (TK-10): -94% | growth at 100 µM (K562 [1]): -16% | growth at 0.1 µM (SF-268 [2]): 93% | growth at 10 µM (SF-268 [3]): -56% | growth at 100 µM (NCI-H522): -90% | growth at 10 µM (A549): -2% | GI50 (HCC 2998 [4]): 1.9 µM | LC50 (HCC 2998 [4]): 6.09 µM | TGI (HCC 2998 [4]): 3.4 µM | GI50 (HCT-15): 1.19 µM | LC50 (HCT-15): > 100 µM | TGI (HCT-15): 3.85 µM | IC50 (MDA-MB-231 [5]): 2 µM | GI50 (SW-620): 1.5 µM | LC50 (lethal concentration, 50% net cell kill) (SW-620): > 100 µM | TGI (SW-620): 4.16 µM | growth at 1 µM (NCI-H23 [6]): 87% | growth at 10 µM (HL-60(TB)): 2% | growth at 0.1 µM (HCC 2998 [7]): 100% | growth at 100 µM (OVCAR-5): -70% | growth at 10 µM (OVCAR-4): -11% | growth at 10 µM (RXF 393): -80% | growth at 1 µM (SNB-19): 77% | growth at 100 µM (786-0): -90% | growth at 100 µM (MOLT-4 [8]): -15% | growth at 0.1 µM (M14 [9]): 92% | growth at 1 µM (SR): 5% | growth at 1 µM (SK-OV-3): 87% | growth at 0.1 µM (COLO 205): 89% | growth at 10 µM (MOLT-4 [10]): -4% | growth at 100 µM (M14 [11]): -74% | growth at 10 µM (SK-MEL-5): -99% | growth at 100 µM (OVCAR-8): -84% | growth at 100 µM (T47D): -47% | growth at 100 µM (KM12): -64% | growth at 1 µM (K562 [12]): 43% | growth at 0.01 µM (M14 [13]): 96% | growth at 100 µM (NCI-H23 [14]): -50% | growth at 1 µM (Malme-3M): 93% | growth at 0.1 µM (MDA-MB-231 [15]): 93%

COc1ccc(-c2cc(/C=C/C(=O)c3ccc(OC)c(OC)c3)[nH]n2)cc1
GI50 (NCI-H322M): 1.62 µM | TGI (NCI-H322M): 4.92 µM | CC50 (NCI-H322M): 18.7 µM | GI50 (MDA-MB-435): 1.84 µM | LC50 (MDA-MB-435): 8.17 µM | TGI (MDA-MB-435): 3.88 µM | growth at 100 µM (TK-10): -98% | growth at 100 µM (K562 [1]): -26% | growth at 0.1 µM (SF-268 [2]): 99% | growth at 10 µM (SF-268 [3]): -40% | growth at 100 µM (NCI-H522): -81% | growth at 10 µM (A549): -23% | GI50 (HCC 2998 [4]): 2.02 µM | LC50 (HCC 2998 [4]): 7.81 µM | TGI (HCC 2998 [4]): 3.97 µM | GI50 (HCT-15): 1.35 µM | LC50 (HCT-15): 9.41 µM | TGI (HCT-15): 3.56 µM | IC50 (MDA-MB-231 [5]): 0.6 µM | GI50 (SW-620): 1.35 µM | LC50 (lethal concentration, 50% net cell kill) (SW-620): 9.54 µM | TGI (SW-620): 3.59 µM | growth at 1 µM (NCI-H23 [6]): 98% | growth at 10 µM (HL-60(TB)): -21% | growth at 0.1 µM (HCC 2998 [7]): 105% | growth at 100 µM (OVCAR-5): -87% | growth at 10 µM (OVCAR-4): -27% | growth at 10 µM (RXF 393): -82% | growth at 1 µM (SNB-19): 80% | growth at 100 µM (786-0): -96% | growth at 100 µM (MOLT-4 [8]): -33% | growth at 0.1 µM (M14 [9]): 105% | growth at 1 µM (SR): 39% | growth at 1 µM (SK-OV-3): 112% | growth at 0.1 µM (COLO 205): 104% | growth at 10 µM (MOLT-4 [10]): -10% | growth at 100 µM (M14 [11]): -99% | growth at 10 µM (SK-MEL-5): -66% | growth at 100 µM (OVCAR-8): -66% | growth at 100 µM (T47D): -83% | growth at 100 µM (KM12): -79% | growth at 1 µM (K562 [12]): 56% | growth at 0.01 µM (M14 [13]): 101% | growth at 100 µM (NCI-H23 [14]): -73% | growth at 1 µM (Malme-3M): 82% | growth at 0.1 µM (MDA-MB-231 [15]): 91%
